One data set deals with T1, c-MET (Homo sapiens, UniProt P08581).
T1 construct: The recombinant DNA His-Tev-MET (956-1390) in pFastBac(Invitrogen); His (N, cleaved yes); Tev (TEV protease site) (N, cleaved yes); made in house; host or cells: SF21 insect cells (baculovirus, pFastBac)
The data set is described as follows: Test A: HTRF Met test in 96-well format. It counts as biochemical. The method, then: I) Expression and Purification of MET, Cytoplasmic Domain
The recombinant DNA His-Tev-MET (956-1390) in pFastBac(Invitrogen) is transfected in insect cells and after several stages of viral amplification, the final stock of baculovirus is tested for expression of the protein of interest.
After infection for 72 h at 27° C. with the recombinant virus, the SF21 cell cultures are harvested by centrifugation and the cellular deposits are stored at −80° C.
The cellular deposits are resuspended in the lysis buffer (buffer A [50 mM HEPES, pH 7.5, 250 mM NaCl, Glycerol 10%, TECP 1 mM]; +cocktail of protease inhibitors Roche Diagnostics without EDTA, ref 1873580), stirred at 4° C. until homogeneous, then lysed mechanically using apparatus of the “Dounce” type.
After centrifugation, the lysis supernatant is incubated for 2 h at 4° C. with Nickel Chelate resin (His-Trap 6 Fast Flow™, GE HealthCare). After washing with 20 volumes of Tp A, the suspension is packed in a column, and the proteins are eluted with a gradient of buffer B ([…]+290 mM imidazole).
The fractions containing the protein of interest with a view to electrophoretic analysis (SDS PAGE) are collected, concentrated by ultrafiltration (cut-off 10 kDa) and injected in an exclusion chromatography column (Superdex™ 200, GE HealthCare) equilibrated with buffer A.
After enzymatic cleavage of the tag Histidine, the protein is reinjected in a new IMAC Nickel Chelate chromatography column (His-Trap 6 Fast Flow™, GE HealthCare) equilibrated with Buffer A. The fractions eluted with a gradient of buffer B and containing the protein of interest after electrophoresis (SDS PAGE), are finally collected and stored at −80° C.
For the production of autophosphorylated protein, the preceding fractions are incubated for 1 h at room temperature after adding ATP 2 mM, MgCl2 2 mM, and Na3VO4 4 mM. After stopping the reaction with 5 mM of EDTA, the reaction mixture is injected in a HiPrep desalting column (GE HealthCare) equilibrated beforehand with buffer A+Na3VO4 4 mM; the fractions containing the protein of interest (SDS PAGE analysis) are collected and stored at −80° C. The degree of phosphorylation is verified by mass spectrometry (LC-MS), and by peptide mapping.
A) HTRF Met test in 96-well format
In a final volume of 50 μl of enzymatic reaction mixture, final c-MET 5 nM is incubated in the presence of the molecule to be tested (for a final concentration range from 0.17 nM to 10 μM, final DMSO 3%) in buffer MOPS 10 mM pH 7.4, DTT 1 mM, Tween 20 0.01%. The reaction is initiated by the substrate solution to obtain the final concentrations of poly-(GAT) 1 μg/ml, ATP 10 μM and MgCl2 5 mM. After incubation for 10 min at room temperature, the reaction is stopped with a mix of 30 μl to obtain a final solution of Hepes 50 mM pH 7.5, potassium fluoride 500 mM, BSA 0.1% and EDTA 133 mM in the presence of 80 ng Streptavidin 61SAXLB Cis-Bio Int. and 18 ng anti-phosphotyrosine Mab PT66-Europium Cryptate per well. After 2 hours of incubation at room temperature, reading is carried out at 2 wavelengths 620 nm and 665 nm in a reader for the TRACE/HTRF technique and the percentage inhibition is calculated according to the 665/620 ratios.

Another data set addresses T2, MET (Homo sapiens, UniProt P08581).
T2 construct: endogenous in cells; host or cells: MKN45 cells
The data set is described as follows: Test C: inhibition of the autophosphorylation of MET, ELISA technique (pppY1230, 1234, 1235), MKN45 cells. Format: cell-based. As for the experimental part:
C) Inhibition of the Autophosphorylation of MET; ELISA Technique (pppY1230, 1234, 1235)
a) Cellular lysates: Sow the MKN45 cells in a 96-well plate (Cell coat BD polylysine) at 20 000 cells/well under 200 μl of medium RPMI+10% FCS+1% L-glutamine. Leave to adhere to the incubator for 24 h.
The cells are treated on the day after sowing with the products at 6 concentrations in duplicate for 1 h. At least 3 control wells are treated with the same amount of final DMSO.
Dilution of the products: Stock at 10 mM in pure DMSO—range from 10 mM to 30 μM with steps of 3 of pure DMSO—Intermediate dilutions to 1/50 in culture medium then taking of 10 μl added directly to the cells (200 μl): final range from 10000 to 30 nM.
At the end of incubation, carefully remove the supernatant and rinse with 200 μl of PBS. Then put 100 μl of lysis buffer directly in the wells on ice and incubate at 4° C. for 30 minutes. Lysis buffer: 10 mM Tris, HCl pH7.4, 100 mM NaCl, 1 mM EDTA, 1 mM EGTA, 1% Triton X-100, 10% glycerol, 0.1% SDS, 0.5% deoxycholate, 20 mM NaF, 2 mM Na3VO4, 1 mM PMSF and antiprotease cocktail.
The 100 μl of lysates are transferred to a V-bottomed polypropylene plate and ELISA is performed next or the plate is frozen at −80° C.
b) ELISA PhosphoMET BioSource Kit KH00281
In each well of the plate from the kit, add 70 μl of dilution buffer from the kit+30 μL of cell lysate or 30 μl of lysis buffer for the blank. Incubate for 2 h at room temperature, stirring gently.
Rinse the wells 4 times with 400 μl of washing buffer from the kit. Incubate with 100 μl of anti-phospho MET antibodies for 1 h at room temperature.
Rinse the wells 4 times with 400 μl of washing buffer from the kit. Incubate with 100 μl of anti-rabbit HRP antibodies for 30 minutes at room temperature (except for the wells with chromogen only).
Rinse the wells 4 times with 400 μl of washing buffer from the kit. Add 100 μL of chromogen and incubate for 30 minutes in the dark at room temperature.
Stop the reaction with 100 μl of stop solution. Read at once at […] 0.1 second in the Wallac Victor plate reader.
The products of formula (I) as defined above show cellular activity in this test between 10 nM and 10 μM.

In a further data set the test system is MKN45 cells. Put plainly: Test D: cellular proliferation by 14C-thymidine pulse, MKN45 cells. Format: cell-based. The conditions noted are these: cell line not stated (HCT116 or MKN45). The method, then: D) Measurement of Cellular Proliferation by 14C-Thymidine Pulse
The cells are sown in Cytostar 96-well plates under 180 μl for 4 hours at 37° C. and 5% CO2: The HCT116 cells at a rate of 2500 cells per well in DMEM medium+10% foetal calf serum+1% of L-glutamine and the MKN45 cells at a rate of 7500 cells per well in RPMI medium+10% foetal calf serum+1% of L-glutamine. After said incubation for 4 hours, the products are added under 10 μl in 20-times concentrated solution according to the method of dilution stated for ELISA. The products are tested at 10 concentrations in duplicate from 10000 nM to 0.3 nM in steps of 3.
After treatment for 72 h, add 10 μl of 14C-thymidine at 10 μCi/ml to obtain 0.1 μCi per well. The incorporation of 14C-thymidine is measured on a Micro-Beta (Perkin-Elmer) after 24 hours of pulse and 96 h of treatment.
All the stages of the test are automated on the BIOMEK 2000 or TECAN stations.

The mark [1] stands for this setting: Homo sapiens, MKN-45, cellular proliferation by 14C-thymidine pulse.

Some results are limits rather than exact numbers.

T2 sequence (P08581 25-1390): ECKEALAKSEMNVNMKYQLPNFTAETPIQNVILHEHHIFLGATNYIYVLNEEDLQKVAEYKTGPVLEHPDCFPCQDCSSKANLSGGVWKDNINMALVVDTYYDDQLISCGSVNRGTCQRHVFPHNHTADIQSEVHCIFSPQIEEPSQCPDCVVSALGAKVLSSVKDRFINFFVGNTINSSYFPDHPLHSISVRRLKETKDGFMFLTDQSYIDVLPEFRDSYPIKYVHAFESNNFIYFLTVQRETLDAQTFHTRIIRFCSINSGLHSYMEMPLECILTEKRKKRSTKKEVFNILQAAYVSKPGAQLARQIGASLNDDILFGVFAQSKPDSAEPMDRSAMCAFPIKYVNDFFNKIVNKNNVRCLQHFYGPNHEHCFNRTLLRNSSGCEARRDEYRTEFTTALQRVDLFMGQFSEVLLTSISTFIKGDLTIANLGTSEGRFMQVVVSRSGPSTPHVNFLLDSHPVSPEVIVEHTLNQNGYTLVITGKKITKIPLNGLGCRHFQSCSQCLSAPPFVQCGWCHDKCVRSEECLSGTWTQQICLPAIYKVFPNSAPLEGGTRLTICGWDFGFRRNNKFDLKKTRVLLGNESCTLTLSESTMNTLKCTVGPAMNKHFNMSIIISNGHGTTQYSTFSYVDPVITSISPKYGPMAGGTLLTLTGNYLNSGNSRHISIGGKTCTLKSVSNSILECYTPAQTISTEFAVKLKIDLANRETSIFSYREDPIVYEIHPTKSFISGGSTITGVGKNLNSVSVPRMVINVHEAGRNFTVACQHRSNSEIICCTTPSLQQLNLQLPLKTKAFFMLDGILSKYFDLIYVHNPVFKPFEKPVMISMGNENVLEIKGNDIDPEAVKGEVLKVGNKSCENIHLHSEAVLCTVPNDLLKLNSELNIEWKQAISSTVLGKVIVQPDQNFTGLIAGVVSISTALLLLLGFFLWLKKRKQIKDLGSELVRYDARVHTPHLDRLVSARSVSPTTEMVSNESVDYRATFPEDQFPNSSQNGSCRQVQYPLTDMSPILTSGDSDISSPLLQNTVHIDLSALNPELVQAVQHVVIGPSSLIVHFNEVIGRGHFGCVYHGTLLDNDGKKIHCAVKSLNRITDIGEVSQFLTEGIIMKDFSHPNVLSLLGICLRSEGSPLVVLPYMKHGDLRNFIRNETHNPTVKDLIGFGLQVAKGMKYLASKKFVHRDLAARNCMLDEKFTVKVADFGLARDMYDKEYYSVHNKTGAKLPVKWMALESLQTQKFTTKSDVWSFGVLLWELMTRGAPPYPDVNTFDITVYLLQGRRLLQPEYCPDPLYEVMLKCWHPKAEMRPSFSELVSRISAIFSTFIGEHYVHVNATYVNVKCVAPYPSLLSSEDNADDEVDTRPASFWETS
T1 sequence (P08581 956-1390): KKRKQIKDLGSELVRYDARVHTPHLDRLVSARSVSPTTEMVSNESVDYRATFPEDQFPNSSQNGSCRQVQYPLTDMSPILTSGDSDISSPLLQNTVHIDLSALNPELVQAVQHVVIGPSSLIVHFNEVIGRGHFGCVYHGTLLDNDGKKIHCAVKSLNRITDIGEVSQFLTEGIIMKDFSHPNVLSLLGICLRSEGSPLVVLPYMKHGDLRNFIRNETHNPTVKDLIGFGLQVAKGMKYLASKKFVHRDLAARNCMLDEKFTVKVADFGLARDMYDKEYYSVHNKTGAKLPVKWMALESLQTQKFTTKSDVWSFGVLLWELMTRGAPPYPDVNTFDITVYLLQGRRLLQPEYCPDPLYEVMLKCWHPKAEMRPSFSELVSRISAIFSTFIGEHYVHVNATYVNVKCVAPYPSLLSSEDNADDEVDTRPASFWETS

On to `CC(Oc1ccc2nc(NC(=O)NCCN3CCOCC3)sc2c1)c1c(Cl)ccc(F)c1Cl` (single isomer, unassigned) [Example 26, 1-{6-[(1S*)-(2,6-dichloro-3-fluorophenyl)ethoxy]-1,3-benzothiazol-2-yl}-3-(2-morpholin-4-ylethyl)urea], for which the IC50 against c-MET fell in the range of 0.1 to 10 µM; against MET, 0.5 to 10 µM.
For the compound `CC(Oc1cc2sc(NC(=O)NCCN)nc2cc1F)c1c(Cl)ccc(F)c1Cl` (single isomer, unassigned) [Example 90, 1-(2-aminoethyl)-3-{6-[(1S*)-1-(2,6-dichloro-3-fluorophenyl)ethoxy]-5-fluoro-1,3-benzothiazol-2-yl}urea], the IC50 at c-MET was less than 0.1 µM; in the data set with MKN45 cells (cellular proliferation by 14C-thymidine pulse), 0.5 to 10 µM.
Compound `Nc1nc2ccc(OCc3c(F)cccc3Cl)cc2s1` [Example 8, 6-[(2-chloro-6-fluorobenzyl)oxy]-1,3-benzothiazol-2-amine] showed a melting point of 175 °C. Moreover, the IC50 against c-MET is 0.1 to 10 µM. This compound also yielded an IC50 with MKN45 cells (setting [1]) of more than 10 µM.
`Nc1nc2ccc(OCc3c(F)cccc3F)cc2s1` [Example 12, 6-[(2,6-difluorobenzyl)oxy]-1,3-benzothiazol-2-amine] showed a melting point of 178 °C. Besides, in the data set on MKN45 cells (setting [1]), the IC50 is more than 10 µM.
`CC(Oc1ccc2nc(NC(=O)NCCC3CCN(C(=O)OC(C)(C)C)CC3)sc2c1)c1c(Cl)ccc(F)c1Cl` (centres unmarked) [Example 38, 1,1-dimethylethyl 4-{2-[({6-[1-(2,6-dichloro-3-fluorophenyl)ethoxy]-1,3-benzothiazol-2-yl}carbamoyl)amino]ethyl}piperidine-1-carboxylate]: the melting point was 95 to 105 °C. This compound also registered an IC50 in the data set with MKN45 cells (setting [1]) of more than 10 µM.
With `CC(Oc1ccc2nc(NC(=O)NCCC3CCN(Cc4ccccc4)CC3)sc2c1)c1c(Cl)ccc(F)c1Cl` (centres unmarked) [Example 52, 1-[2-(1-benzylpiperidin-4-yl)ethyl]-3-{6-[1-(2,6-dichloro-3-fluorophenyl)ethoxy]-1,3-benzothiazol-2-yl}urea], the IC50 against c-MET is less than 0.1 µM; against MET, less than 0.5 µM; in the data set with MKN45 cells (setting [1]) it was 0.5 to 10 µM.
As for `CCN(CC)C(CCOC(N)=O)c1nc2cc(F)c(OC(C)c3c(Cl)ccc(F)c3Cl)cc2s1` (centres unmarked) [Example 70, {6-[1-(2,6-dichloro-3-fluorophenyl)ethoxy]-5-fluoro-1,3-benzothiazol-2-yl}3-(diethylamino)propyl carbamate], the melting point was in the range of 188 to 190 °C.
For `CCN(CC)C(COC(N)=O)c1nc2cc(F)c(OC(C)c3c(Cl)ccc(F)c3Cl)cc2s1` (centres unmarked) [Example 71, {6-[1-(2,6-dichloro-3-fluorophenyl)ethoxy]-5-fluoro-1,3-benzothiazol-2-yl}2-(diethylamino)ethyl carbamate], the melting point fell in the range of 184 to 186 °C.
Regarding `CCN(CC)CCOC(=O)Nc1nc2cc(F)c(OC(C)c3c(Cl)ccc(F)c3Cl)cc2s1` (centres unmarked) [Example 71], the values for the IC50 against c-MET, against MET and in the data set on MKN45 cells (setting [1]) were less than 0.1 µM, 0.5 to 10 µM and 0.5 to 10 µM, respectively.
`COC(COC(N)=O)c1nc2cc(F)c(OC(C)c3c(Cl)ccc(F)c3Cl)cc2s1` (centres unmarked) [Example 72, {6-[1-(2,6-dichloro-3-fluorophenyl)ethoxy]-5-fluoro-1,3-benzothiazol-2-yl}2-methoxyethyl carbamate] yielded a melting point of 200 to 205 °C.
Consider `COCCOC(=O)Nc1nc2cc(F)c(OC(C)c3c(Cl)ccc(F)c3Cl)cc2s1` (centres unmarked) [Example 72], for which the IC50 at c-MET is less than 0.1 µM; on MET it was 0.5 to 10 µM; in the data set on MKN45 cells (setting [1]), 0.5 to 10 µM.
The compound `CC(Oc1ccc2nc(C(COC(N)=O)N3CCOCC3)sc2c1)c1c(Cl)ccc(F)c1Cl` (centres unmarked) [Example 74, {6-[1-(2,6-dichloro-3-fluorophenyl)ethoxy]-1,3-benzothiazol-2-yl}2-(morpholin-4-yl)ethyl carbamate] came in with a melting point of 235 to 240 °C.
On to `CC(Oc1cc2sc(NC(=O)NCCCC(C)(C)OC(N)=O)nc2cc1F)c1c(Cl)ccc(F)c1Cl` (centres unmarked) [Example 87, {2-[({6-[1-(2,6-dichloro-3-fluorophenyl)ethoxy]-5-fluoro-1,3-benzothiazol-2-yl}carbamoyl)amino]ethyl}2-methylpropan-2-yl carbamate], for which the melting point was 230 °C.
Regarding `CC(Oc1cc2sc(NC(=O)NCCNC(=O)OC(C)(C)C)nc2cc1F)c1c(Cl)ccc(F)c1Cl` (centres unmarked) [Example 87], the half-maximal inhibitory concentration (IC50) was less than 0.1 µM against c-MET, 0.5 to 10 µM on MET and 0.5 to 10 µM in the data set with MKN45 cells (setting [1]).
Consider `CNC(=O)OC(C)(C)CCCNC(=O)Nc1nc2cc(F)c(OC(C)c3c(Cl)ccc(F)c3Cl)cc2s1` (centres unmarked) [Example 95, {2-[({6-[1-(2,6-dichloro-3-fluorophenyl)ethoxy]-5-fluoro-1,3-benzothiazol-2-yl}carbamoyl)amino]ethyl}2-methylpropan-2-yl methylcarbamate], for which the melting point lay in the range of 151 to 193 °C.
In the case of `CC(Oc1cc2sc(NC(=O)NC3CC3)nc2cc1F)c1c(Cl)ccc(F)c1Cl` (centres unmarked) [Example 131, 1-cyclopropyl-3-{6-[1-(2,6-dichloro-3-fluorophenyl)ethoxy]-5-fluoro-1,3-benzothiazol-2-yl}urea], the IC50 was less than 0.1 µM against c-MET, less than 0.5 µM against MET and less than 0.5 µM with MKN45 cells (setting [1]).

The values are drawn from patent US8188078B2 (Sanofi-Aventis, priority 2007, dated 2012).
